Measured values reported in patent US4016042A, “Substrate for the quantitative determination of enzymes” (Pentapharm A.G., priority 1974, dated 1977).
Counter-ions that a name gives are not always drawn. Residues, ends and D or L forms follow the SMILES beside them. *: point of attachment. Hydrocinnamoyl = O=C(CCc1ccccc1)*; pNA = O=[N+]([O-])c1ccc(N*)cc1; Bz = O=C(c1ccccc1)*

How the values were obtained:
Assay type in all cases: biochemical
thrombin = thrombin (Homo sapiens, UniProt P00734); experiment: Km and vmax determination with substrate (Lineweaver-Burk), thrombin; settings: NIH units per 1 substrate unit
Description: (§1) As is evident from equation (2) constants Km and k3 determine the activity of the enzyme substrate for a given enzyme. For determining these constants the following procedure is followed:
(§2) The enzyme and the substrate are mixed in a buffer solution, and the reaction is followed spectrophotometrically for 2 to 30 minutes. The concentration of substrate [S] is varied, whereas the enzyme concentration [E] is kept constant. If the extinction (OD) (= optical density) is plotted in a co-ordinate system as a function of time, a curve is obtained the tangent of which (difference in extinction per minute, Δ OD/minute, from which the quantity in μmoles of pNA/min (v) can be calculated) at time zero corresponds to the ideal course of the hydrolysis. By means of this tangent the initial rate of the hydrolysis can be determined.
(§3) If 1/v is plotted against 1/[S], a Lineweaver-Burk diagram (cf. "Kurzes Lehrbuch der Biochemie" by P. KARSON, Georg Thieme-Verlag, Stuttgart, 1967, p. 70) is obtained from which vmax and Km can be determined graphically.
(§4) Km and k3 = vmax /E were determined with N^α-Bz-Pro-Phe-Arg-pNA^. HCl (i.e. the substrate prepared according to Example 1) for plasma kallikrein, trypsin, plasmin and thrombin.

plasmin [1] = target: T1, plasmin (Homo sapiens, UniProt P00747); experiment: Activity of human plasmin measured with the substrates at constant substrate and enzyme concentrations; settings: split product
T1 sequence (P00747 581-810 limits assumed): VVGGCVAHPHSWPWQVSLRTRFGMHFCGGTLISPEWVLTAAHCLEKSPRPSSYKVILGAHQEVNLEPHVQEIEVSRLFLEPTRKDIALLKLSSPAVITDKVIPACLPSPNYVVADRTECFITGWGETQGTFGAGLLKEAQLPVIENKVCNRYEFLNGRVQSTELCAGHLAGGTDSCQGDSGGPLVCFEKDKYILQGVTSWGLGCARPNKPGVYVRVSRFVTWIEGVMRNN
T1 sequence (P00747 97-580 partner limits assumed): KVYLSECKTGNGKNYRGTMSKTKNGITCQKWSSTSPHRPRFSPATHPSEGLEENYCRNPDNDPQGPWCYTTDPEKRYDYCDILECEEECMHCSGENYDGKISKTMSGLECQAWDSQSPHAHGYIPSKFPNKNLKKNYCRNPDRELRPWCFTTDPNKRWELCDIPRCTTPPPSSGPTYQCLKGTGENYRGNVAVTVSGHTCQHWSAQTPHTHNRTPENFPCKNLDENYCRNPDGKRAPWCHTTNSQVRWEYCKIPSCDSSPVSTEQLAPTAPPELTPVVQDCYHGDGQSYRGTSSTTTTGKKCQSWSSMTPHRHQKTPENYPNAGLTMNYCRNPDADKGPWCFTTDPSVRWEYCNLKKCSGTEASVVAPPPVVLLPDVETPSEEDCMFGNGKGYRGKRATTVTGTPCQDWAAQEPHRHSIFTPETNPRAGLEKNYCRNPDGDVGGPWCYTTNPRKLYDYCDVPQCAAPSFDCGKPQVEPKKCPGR
Description: (§5) HCl, were used for the quantitative determination of various enzymes in blood plasma. The determination was carried out by taking advantage of the fact that the split product NH2 -R^2 formed by enzymatic hydrolysis of the substrate has a UV spectrum which differs from that of the substrate and is shifted toward higher wave lengths. Thus, N^α-Bz-Pro-Phe-Arg-pNA^.
(§6) The degree of the enzymatic hydrolysis of the substrate, which is proportional to the quantity of p-nitroaniline formed, can be easily determined by spectrophotometric measurement at 405 nm. […] The conditions are practically the same for the other substrates carrying a p-nitroanilino group as a chromogenic group. The spectrophotometric measurement was, therefore, carried out in all cases at 405 nm.

trypsin = target: T2, trypsin (Bos taurus, UniProt P00760); experiment: Km and vmax determination with substrate (Lineweaver-Burk), trypsin; settings: NF units per 1 substrate unit
T2 sequence (P00760 24-246): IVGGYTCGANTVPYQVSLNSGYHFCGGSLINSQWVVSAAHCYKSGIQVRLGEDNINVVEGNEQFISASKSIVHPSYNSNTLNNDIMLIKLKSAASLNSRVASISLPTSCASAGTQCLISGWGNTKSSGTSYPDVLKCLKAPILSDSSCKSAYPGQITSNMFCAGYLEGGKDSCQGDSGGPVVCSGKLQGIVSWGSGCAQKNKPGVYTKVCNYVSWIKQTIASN
Description: as §1, §2, §3, §4

plasma kallikrein [2] = target: T3, plasma kallikrein (Homo sapiens, UniProt P03952); experiment: Km and vmax determination with substrate (Lineweaver-Burk), plasma kallikrein; settings: common units per 1 substrate unit
T3 sequence (P03952 391-638 limits assumed, species assumed): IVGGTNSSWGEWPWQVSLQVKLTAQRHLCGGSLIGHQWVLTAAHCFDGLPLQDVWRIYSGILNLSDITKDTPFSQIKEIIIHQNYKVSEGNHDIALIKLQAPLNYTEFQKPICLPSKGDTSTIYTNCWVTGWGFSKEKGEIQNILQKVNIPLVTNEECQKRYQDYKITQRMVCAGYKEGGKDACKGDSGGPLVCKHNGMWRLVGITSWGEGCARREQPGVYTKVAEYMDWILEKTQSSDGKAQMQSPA
T3 sequence (P03952 20-390 partner limits assumed, species assumed): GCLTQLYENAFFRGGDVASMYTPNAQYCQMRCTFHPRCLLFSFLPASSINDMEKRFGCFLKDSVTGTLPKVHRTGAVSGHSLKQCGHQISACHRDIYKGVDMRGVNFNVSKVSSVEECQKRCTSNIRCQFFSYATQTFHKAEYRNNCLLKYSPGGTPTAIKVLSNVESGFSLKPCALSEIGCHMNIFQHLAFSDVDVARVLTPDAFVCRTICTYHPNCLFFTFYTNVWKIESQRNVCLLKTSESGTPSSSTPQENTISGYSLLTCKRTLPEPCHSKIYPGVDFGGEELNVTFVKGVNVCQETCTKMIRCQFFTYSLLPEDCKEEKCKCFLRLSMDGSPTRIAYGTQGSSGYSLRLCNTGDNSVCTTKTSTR
Description: as §1, §2, §3, §4

plasma kallikrein [3] = target: T3, plasma kallikrein; experiment: Activity of plasma kallikrein measured with the substrates at constant substrate and enzyme concentrations; settings: split product
Description: as §5, §6

[4] = target: T4, prothrombin activator from venom of the snake Echis carinatus (Echis carinatus, UniProt Q90495); experiment: Activity of prothrombin activator measured with substrates at a constant substrate concentration
T4 sequence (Q90495 191-616): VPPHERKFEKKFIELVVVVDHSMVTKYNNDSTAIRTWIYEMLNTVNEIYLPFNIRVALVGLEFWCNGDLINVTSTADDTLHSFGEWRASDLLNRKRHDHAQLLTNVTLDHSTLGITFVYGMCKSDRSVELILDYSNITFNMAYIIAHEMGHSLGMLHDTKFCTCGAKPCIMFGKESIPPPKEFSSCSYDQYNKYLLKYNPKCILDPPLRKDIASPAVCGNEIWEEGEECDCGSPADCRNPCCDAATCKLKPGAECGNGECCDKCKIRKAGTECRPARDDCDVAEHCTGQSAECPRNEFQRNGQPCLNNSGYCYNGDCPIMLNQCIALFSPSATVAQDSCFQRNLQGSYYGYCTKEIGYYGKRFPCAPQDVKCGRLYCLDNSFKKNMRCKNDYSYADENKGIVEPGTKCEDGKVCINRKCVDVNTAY
Description: (§7) The degree of the enzymatic hydrolysis of the substrate, which is proportional to the quantity of p-nitroaniline formed, can be easily determined by spectrophotometric measurement at 405 nm. The presence of an excess of substrate exerts no disturbing effect on the measurement at 405 nm. The conditions are practically the same for the other substrates carrying a p-nitroanilino group as a chromogenic group. The spectrophotometric measurement was, therefore, carried out in all cases at 405 nm.
(§8) Activity of papain and prothrombin activator, measured by means
(§9) Quantity in nm of p-nitroaniline (pNA) re-
(§10) leased within 1 minute by 0.1 milli-Anson
(§11) unit^3) of papain and 10 μg of a pure fraction
of the prothrombin activator from venom of
the snake Echis carinatus
^2) The prothrombin activator is a serine-protease which was isolated
from the venom of the snake Echis carinatus.

plasmin [5] = target: T1, plasmin; experiment: Km and vmax determination with substrate (Lineweaver-Burk), plasmin; settings: casein units per 1 substrate unit
Description: as §1, §2, §3, §4

papain = target: T5, papain (Carica papaya, UniProt P00784); experiment: Activity of papain measured with substrates at a constant substrate concentration
T5 construct: from tissue; host or cells: latex of the Carica papaya fruit
T5 sequence (P00784 134-345): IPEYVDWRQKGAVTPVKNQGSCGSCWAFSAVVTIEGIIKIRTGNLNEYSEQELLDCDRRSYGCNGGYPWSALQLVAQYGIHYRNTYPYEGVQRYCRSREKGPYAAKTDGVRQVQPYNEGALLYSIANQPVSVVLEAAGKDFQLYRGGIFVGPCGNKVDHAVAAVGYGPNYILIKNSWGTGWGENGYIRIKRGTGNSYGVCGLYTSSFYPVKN
Description: as §7, §8, §9, §10, §11
^1) Papain is a cysteine-protease isolated from the latex of the gree
^3) One Anson unit is the enzyme quantity which releases 1 mmole of
folin-positive amino acids (calculated as tyrosine) in 1 minute (cf. Art.

N=C(N)NCCC[C@H](NC(=O)[C@H](Cc1ccccc1)NC(=O)[C@@H]1CCCN1C(=O)c1ccccc1)C(=O)Nc1ccc([N+](=O)[O-])cc1 [Substrate I, N^α-Bz-Pro-Phe-Arg-pNA^. HCl] (Bz-Pro-Phe-Arg-pNA)
relation between substrate units and common units (1 U = x) (thrombin): 117600 NIH | Quantity of p-nitroaniline (pNA), β-naphthylamine (2-NA) or 4-methoxy-β-naphthylamine (4-MeO-2-NA) released within 1 minute by one C unit of human plasmin (plasmin [1]): 152.0 nm | relation between substrate units and common units (1 U = x) (trypsin): 12000 NF | relation between substrate units and common units (1 U = x) (plasma kallikrein [2]): 4.8 BAEE U | Quantity of p-nitroaniline (pNA), β-naphthylamine (2-NA) or 4-methoxy-β-naphthylamine (4-MeO-2-NA) released within 1 minute by 1 BAEE unit of plasma kallikrein (plasma kallikrein [3]): 135.5 nm | Quantity of p-nitroaniline (pNA) released within 1 minute by 10 μg of a pure fraction of the prothrombin activator from venom of Echis carinatus [4]: 13.1 nm | relation between substrate units and common units (1 U = x) (plasmin [5]): 518 C U

N=C(N)NCCC[C@H](NC(=O)[C@H](Cc1ccccc1)NC(=O)[C@@H]1CCCN1C(=O)CCc1ccccc1)C(=O)Nc1ccc([N+](=O)[O-])cc1 [Substrate VII, N^α -3-Phenyl-propionyl-Pro-Phe-Arg-pNA.HCl] (Hydrocinnamoyl-Pro-Phe-Arg-pNA)
Quantity of p-nitroaniline (pNA), β-naphthylamine (2-NA) or 4-methoxy-β-naphthylamine (4-MeO-2-NA) released within 1 minute by one C unit of human plasmin (plasmin [1]): 144.0 nm | Quantity of p-nitroaniline (pNA), β-naphthylamine (2-NA) or 4-methoxy-β-naphthylamine (4-MeO-2-NA) released within 1 minute by 1 BAEE unit of plasma kallikrein (plasma kallikrein [3]): 256.0 nm | Quantity of p-nitroaniline (pNA) released within 1 minute by 0.1 milli-Anson unit of papain (papain): 24.9 nm
